Assays:
[1] = test system: myelin oligodendrocyte glycoprotein (MOG)-induced experimental autoimmune encephalomyelitis (EAE) model; assay: MOG-induced EAE model of multiple sclerosis, treatment after disease onset; format: in vivo, C57BL/6J mice; conditions: for maximal severity of disability / progress of the disease (clinical score) / mice exhibiting complete remission: 1 mg/kg i.p. daily from first CS≥2; for burden of disability (area under curve of clinical score): 1 mg/kg i.p., data not shown; for demyelination and infiltration of peripheral mononuclear cells in spinal cord: Luxol Fast Blue and eosin staining; for mice exhibiting complete remission: dpi 35, saline control 22%
Experimental: FIG. 1. […] (B) Percentage of animals in remission. Statistical analysis was conducted by ANOVA comparing the CS after day 18, which was defined as the recovery phase. FIG. 2. Representative histopathology of EAE in mice treated with COG 112 or saline control. 5 μm thick sections were stained with Luxol fast blue and eosin to reveal demyelination and peripheral infiltrates. The left panels show the pathological changes in spinal cord from cervical (A), thoracic (B) and lumbar (C) segments of a saline-treated control animal. Demyelination is shown as loss of blue staining in white matter and peripheral infiltrates are stained with purple particles. Panels D, E and F show the corresponding segments of a COG 112-treated animal where no obvious demyelination is observed. The boxed-insets of panel A and D are magnified 10× in panel G and H, respectively. FIG. 3. Profiling and quantification of T cell subset infiltrates in the spinal cords of animals on 21 days post-immunization that were treated with or without COG 112. Single-cell suspensions of spinal cord were stained with anti-CD3, CD4, and CD8 mAbs. Frequency of CD3+CD45+ cytometry (T cell) is represented in control (A) and COG112-treated (C) animals. Frequency of CD4+ and CD8+ T cells is represented in saline control (B) and COG 112-treated (D) mice. Total cell number for each of the specific cell surface markers is calculated and expressed as number per spinal cord (E). […] C57BL/6J mice were first immunized with MOG to create an EAE model. […] One of the pathological hallmarks of MS is extensive demyelination of the myelin sheath surrounding neurons accompanied by massive infiltration of peripheral leukocytes into the brain and the spinal cord, all of which contribute to the clinical manifestations of neurological disability. We further examined the effects of COG peptides on demyelination and leukocyte-influx into the spinal cords by Luxol Fast Blue (LFB) and Eosin staining. […] Panel G is a magnified view of the boxed area in A. […] Single-cell suspensions of spinal cord were stained with anti-CD3, CD4, and CD8 mAbs. As shown in FIGS. 3A & C, the frequency of CD3+ T cells in the spinal cords of mice treated with COG 112 was reduced as compared to vehicle controls on dpi 21.

[2] = molecular target: T1, Calcineurin (Homo sapiens, UniProt Q08209); assay: Cell-free calcineurin phosphatase activity assay (BioMol kit); format: biochemical; conditions: various concentrations
T1 construct: purchased BioMol AK-804
Experimental: (§1) FIG. 14. ApoE analogs bind directly to calcineurin and inhibit its activity. […] (B) Immunoprecipitation of human brain lysate with a biotin-COG 133 conjugate. Lane 1=markers; lane 2=clear bead; lane 3=biotin-COG 133 bead conjugate; and lane 4=10 μg lysate. (C) Immunoprecipitation of different glial cultures with a biotin-COG 133 conjugate. Lane 1=markers; lane 2=astrocyte; lane 3=microglia; and lane 4=oligodendrocyte precursor cells (OPC). Blots in B and C were probed for calcineurin (PP2B).
(§2) Calcineurin activity was measured in a cell-free in vitro assay in the presence of various concentrations of COG 133 (SEQ ID NO: 1), COG 112 (SEQ ID NO: 5), COG 68 (SEQ ID NO: 7), COG 125 (Ac-AS(Aib)LRKL(Aib)KR—COOH; SEQ ID NO: 8), or antennapedia (antp), the prefix peptide for COG 112. […] Using a BioMol Calcineurin Phosphatase Activity Kit (Cat. #AK-804), the assay was conducted according to manufacturer's instructions. […] This inhibition of calcineurin activity by ApoE analogs is mediated by a direct interaction of the ApoE analog with the phosphatase.

[3] = molecular target: T2, calcineurin (PP2B) (Homo sapiens, UniProt Q08209); assay: Immunoprecipitation with biotin-COG 133 conjugate, blot probed for calcineurin; format: binding; conditions: human brain lysate or primary glial culture; biotin-COG 133 bead conjugate
T2 construct: from tissue; host or cells: human brain lysate
Experimental: as §1, §2

[4] = test system: 175 kdyn contusive spinal cord injury; assay: Contusive spinal cord injury; format: in vivo, Sprague-Dawley rats; conditions: 1 mg/kg
Experimental: FIG. 12. COG 112 reduces the size of the lesion in white matter after spinal cord injury by inhibition of microglia activation. Rats received 175 kdyn contusive spinal cord injury and subsequent treatment with saline or COG 112 starting immediately after injury for 1 week. The injured area and spared white matter from the injured spinal cord were evaluated and quantified by luxol fast blue (LFB) staining area (top left panel). Activation of microglia was examined by staining adjacent sections with an ED1 antibody (bottom left panel). […] Scale bar=1000 μm. Similar to MS, spinal cord injury (SCI) is another devastating neurological disorder manifested as massive demyelination in the white matter of the spinal cord and extensive microglial activation surrounding the injured site. To examine the therapeutic effect of ApoE analogs on spinal cord injury, COG 112 (SEQ ID NO: 5) was administered to rats immediately after a contusive spinal cord injury. […] The second dose of COG 112 or vehicle was given i.v. 5 hours later followed by daily i.p. doses for 7 days. The animals were sacrificed on day 7 and the spinal cord spanning the injured site was subjected to histological examination. The injured area and spared white matter of the spinal cord were evaluated by Luxol Fast blue (LFB) staining. Activation of microglia was examined by staining adjacent sections with an antibody to ED1. […] Most impressively, about 50% of spared tissue remained at the epicenter of COG 112-treated animals, while only 15% remained in control animals. […] The microglia surrounding the injured spinal cord were robustly activated as shown by ED1-immunoreactivity 7 days after contusion (FIG. 12, bottom panels).

[5] = test system: NFAT translocation in BV2 cells; assay: LPS-induced NFAT translocation in BV2 cells; format: cell-based, murine; conditions: 2 μM, LPS 10 ng/mL, 15 min
Source text: FIG. 15. ApoE analog inhibits LPS-induced NFAT translocation. Murine microglial cell line, BV2 cells were stimulated with LPS in the presence or absence of COG 112. NFAT (green signal) and nuclear label (red signal). (A) Untreated cultures; (B) LPS-treated cultures; (C) LPS+COG 112-treated cultures; (D) NFAT translocation was quantified by the fluorescence intensity of green fluorescence in the nucleus defined by yellow area.
Calcineurin dephosphorylates the transcription factor NFAT, which leads to its activation and translocation to the nucleus. Activation of calcineurin and subsequent activation of NFAT is induced by inflammatory stimuli. To further examine the effect of ApoE analogs on calcineurin signaling, murine microglial cell line, BV2 cells were stimulated with LPS (10 ng/mL) in the absence and presence of COG 112 (2 μM). After incubation for 15 min at 37° C., the cells were washed and fixed with 4% formaldehyde. After staining with 1/100 anti-NFAT antibody coupled with Alexaflour and then counterstained with hoescht nuclear dye, NFAT translocation was quantified by the fluorescence intensity of Alexaflour in the nucleus.

Compound	maximal severity of disability [1]	progress of the disease (clinical score) [1]	burden of disability (area under curve of clinical score) [1]	demyelination and infiltration of peripheral mononuclear cells in spinal cord [1]	mice exhibiting complete remission [1] [%]	inhibition of calcineurin activity [2]	binding of calcineurin (PP2B) in immunoprecipitates [3]	CD4+ T cell infiltration into the spinal cord ([1]; dpi 21, vs vehicle)	frequency of CD3+ T cells in the spinal cord ([1]; dpi 21, vs vehicle)	number of CD8+ T cells in the spinal cord ([1]; dpi 21, vs vehicle)	ED1 immunoreactive area in the injured spinal cord (microglia activation) ([4]; 7 days after contusion)	spared tissue remaining at the epicenter ([4]; day 7, control animals 15%)	percentage of spared white matter to total spinal cord area ([4]; day 7, epicenter to 2.4 mm rostral or caudal, vs saline)	NFAT translocation to the nucleus [5]
CC(=O)N[C@@H](CC(C)C)C(=O)N[C@@H](CCCNC(=N)N)C(=O)N[C@H](C(=O)N[C@@H](CCCNC(=N)N)C(=O)N[C@@H](CC(C)C)C(=O)N[C@@H](C)C(=O)N[C@@H](CO)C(=O)N[C@@H](Cc1c[nH]cn1)C(=O)N[C@@H](CC(C)C)C(=O)N[C@@H](CCCNC(=N)N)C(=O)N[C@@H](CCCCN)C(=O)N[C@@H](CC(C)C)C(=O)N[C@@H](CCCNC(=N)N)C(=O)N[C@@H](CCCCN)C(=O)N[C@@H](CCCNC(=N)N)C(=O)N[C@@H](CC(C)C)C(=O)N[C@@H](CC(C)C)C(N)=O)C(C)C [COG 133]	significantly reduced the maximal severity of disability	significantly slowed the deleterious progress of the disease	significantly reduced the burden of disability	greatly reduced	50	dose-dependent inhibition	bound							
Ac-RQIKIWFQNRRMKWKKCLRVRLASHLRKLRKRLL-NH2 [COG 112]	significantly reduced the maximal severity of disability	significantly slowed the deleterious progress of the disease	significantly reduced the burden of disability	greatly reduced	71	dose-dependent inhibition		significantly reduced	reduced	no significant difference	dramatically decreased	about 50%	significantly higher	prevented NFAT translocation

Reference: patent US8629242B2, “Methods of inhibiting calcineurin with ApoE analogs” (Cognosci, Inc., priority 2007, dated 2014)
